Here are results for 27 compounds from US20240173419A1, “CDK2 DEGRADERS AND USES THEREOF” (Kymera Therapeutics, Inc., priority 2022, published 2024).

In the test the target is T1, CDK2 (Homo sapiens, UniProt P24941).
T1 construct: endogenous in cells; host or cells: MKN1 cells
The test is described as follows: CDK2 degradation in MKN1 cells (AlphaLISA). The class given is cell-based. As to conditions: for DC50: read-out: CDK2 degradation 14 h: Mean external-Abs DC50; for Dmax: MKN-1, 14 h incubation. On the set-up: key to CDK2 degradation 14 h: Mean external-Abs DC50 (nM): A (<100 nM); B (≥100-500 nM); C (>500-1000 nM); D (>1000 nM); E (not achieved). As for the experimental part: Degradation of CDK2 in MKN1 cells was measured using AlphaLISA technology (PerkinElmer ALSU-TCDK2-A10K). MKN1 cells were maintained in RPMI1640 medium containing 10% FBS+1× penn/strep. Cells were seeded in 96-well plates (Corning 3599) at a density of 2e4 cells per well in 80 μL of fresh complete growth medium. Cells were incubated overnight at 37° C., 5% CO2. Compounds were then added to the cell assay plates with a final top concentration of 10 μM in a 1:5 dilution series with a total of 11 doses (0.001 nM-10 μM). The final volume per well was 160 μL and the final DMSO concentration was 0.1%. Additionally, wells containing no cells and only complete growth medium were also maintained on the cell assay plates (‘no cell’ wells) and processed along with experimental wells. After 14 hour-incubation at 37° C., 5% CO2, the medium was removed and the cells were washed once with 100 μL of 1×PBS. Following removal of PBS, 40 μL of 1× Lysis Buffer containing 1× protease and phosphatase inhibitors (Roche 4693116001; Roche 4906837001) were added to each well. The cell assay plate was agitated on a plate shaker at 350 rpm for 10 minutes at room temperature. 10 μL of each cell lysate were transferred to a 384-well plate (PerkinElmer 6007290). 10 μL of control lysates (from PerkinElmer ALSU-TCDK2-A10K kit) were added to separate wells to generate a standard curve. Activation Buffer was prepared by diluting 25-fold in combined Reaction Buffer 1 and Reaction Buffer 2. Acceptor Beads were diluted 50-fold in combined Reaction Buffers. 5 μL of Acceptor Mix were added to each well. The plate was sealed with Topseal-Aadhesive film, covered with foil, and incubated in the dark for 1 hour at room temperature. Under subdued light, the Donor Beads were diluted 50-fold in Dilution Buffer. 5 μL of Donor Mix were added to each well under subdued light. The plate was sealed with Topseal-A adhesive film, covered with foil, and incubated in the dark for 1 hour at room temperature. Under subdued light, the plates were analyzed on an EnVision Microplate Reader (PerkinElmer Model 2009-0030). The average signal from ‘no cell’ wells was subtracted from the signal in experimental wells prior to calculating Alpha signal for test compounds and negative control (0.100 DMSO). The data were analyzed using Xlfit (v5.3. 1.3) and the dose-dependent CDK2 degradation data were fit using a four-parameter logistic model to calculate DC50.
(In Alpha technology, singlet oxygen from a donor bead excites a nearby acceptor bead.)

A word on the DC50: it is the concentration giving 50% degradation. As a reminder, the Dmax is the largest share of the target that was removed.

Regarding `Cc1cc(S(=O)(=O)NC(C)COC2CN(CC3CCN(c4ccc5c(c4F)n(C)c(=O)n5C4CCC(=O)NC4=O)CC3)C2)ccc1Nc1ncc(C(F)(F)F)c(C2CCC(C)(O)CC2)n1` (racemic) [I-852], under “14 h incubation”, the “CDK2 degradation 14 h: Average Dmax %” value is reported as “B (B (>50% -75%))” and the DC50 is less than 100 nM.

On to `Cc1cc(S(=O)(=O)NC(C)COC2CCC(CN3CCN(c4ccc5c(c4F)n(C)c(=O)n5C4CCC(=O)NC4=O)CC3)CC2)ccc1Nc1ncc(C(F)(F)F)c(C2CCC(C)(O)CC2)n1` (racemic) [I-859], for which, under “14 h incubation”, the DC50 was less than 100 nM.

For the compound `[2H]C(C)(COC1CCC(CN2CCN(c3ccc4c(c3F)n(C)c(=O)n4C3CCC(=O)NC3=O)CC2)CC1)NS(=O)(=O)c1ccc(Nc2ncc(C(F)(F)F)c(C3CCC(C)(O)CC3)n2)c(C)c1` (racemic) [I-859], the “CDK2 degradation 14 h: Average Dmax %” value (14 h incubation) is on record as “A (A (>75% o))”.

For the compound `Cc1cc(S(=O)(=O)NC2CCC(CN3CCN(c4ccc([C@@H]5CCC(=O)NC5=O)c(Cl)c4)CC3)CC2)ccc1Nc1ncc(C(F)(F)F)c(N2CCC[C@](C)(O)C2)n1` (single isomer, unassigned) [I-809], the Dmax was more than 75%. Also, the DC50 (14 h incubation) is less than 100 nM. In the case of `Cc1cc(S(=O)(=O)NC2CCC(CN3CCN(c4ccc([C@H]5CCC(=O)NC5=O)c(Cl)c4)CC3)CC2)ccc1Nc1ncc(C(F)(F)F)c(N2CCC[C@](C)(O)C2)n1` (single isomer, unassigned) [I-817], the Dmax was more than 75%. Also, the DC50 (14 h incubation) is 100 to 500 nM. On the same counts, the results for `Cc1cc(S(=O)(=O)CCCO[C@H]2CC[C@H](CN3CCC(c4ccc5c(c4)n(C)c(=O)n5C4CCC(=O)NC4=O)CC3)CC2)ccc1Nc1ncc2cc(Cl)c(=O)n(C3CCCC3)c2n1` (stereo partly shown) [I-3, 3-[5-[1-[[4-[3-[4-[(6-Chloro-8-cyclopentyl-7-oxo-pyrido[2,3-d]pyrimidin-2-yl)amino]-3-methyl-phenyl]sulfonylpropoxy]cyclohexyl]methyl]-4-piperidyl]-3-methyl-2-oxo-benzimidazol-1-yl]piperidine-2,6-dione] are more than 75% and less than 100 nM.

For the compound `Cc1cc(S(=O)(=O)CCCO[C@H]2CC[C@H](CN3CCC(c4ccc5c(c4)n(C4CCC(=O)NC4=O)c(=O)n5C)CC3)CC2)ccc1Nc1nccc(-c2cnc(C)n2C(C)C)n1` (stereo partly shown) [I-4], where the note is “14 h incubation”, the “CDK2 degradation 14 h: Average Dmax %” value is recorded as “B (B (>50% -75%))” and the 50% degradation concentration (DC50) was less than 100 nM. Take `Cc1cc(S(=O)(=O)CCCO[C@H]2CC[C@H](CN3CCC(c4ccc5c(c4)n(C4CCC(=O)NC4=O)c(=O)n5C)CC3)CC2)ccc1Nc1ncc2cc(C(F)F)c(=O)n(C(C)C)c2n1` (stereo partly shown) [I-6]: under “14 h incubation”, the “CDK2 degradation 14 h: Average Dmax %” value is recorded as “B (B (>50% -75%))” and the “CDK2 degradation 14 h: Mean external-Abs DC50 (nM)” value is reported as “E”. Take `Cc1cc(S(=O)(=O)C2CCN(CCN3CCN(c4cccc5c4n(C)c(=O)n5C4CCC(=O)NC4=O)CC3)CC2)ccc1Nc1ncc2cc(Cl)c(=O)n(C(C)C)c2n1` (stereo not shown) [I-7]: for the setting “14 h incubation”, the “CDK2 degradation 14 h: Average Dmax %” value is listed as “A (A (>75% o))” and the DC50 is less than 100 nM.

Take `Cc1cc(S(=O)(=O)C2CCN(CCN3CCC(c4cccc5c4n(C)c(=O)n5C4CCC(=O)NC4=O)CC3)CC2)ccc1Nc1ncc2cc(Cl)c(=O)n(C(C)C)c2n1` (stereo not shown) [I-8]: under “14 h incubation”, the “CDK2 degradation 14 h: Average Dmax %” value is on record as “B (B (>50% -75%))” and the DC50 fell in the range of 100 to 500 nM. As to `Cc1cc(S(=O)(=O)C2CCN(C3CCN(CC4CCN(c5cccc6c5n(C)c(=O)n6C5CCC(=O)NC5=O)CC4)CC3)CC2)ccc1Nc1ncc2cc(Cl)c(=O)n(C(C)C)c2n1` (stereo not shown) [I-10], under “14 h incubation”, the “CDK2 degradation 14 h: Average Dmax %” value is recorded as “A (A (>75% o))” and the DC50 was less than 100 nM. `Cc1cc(S(=O)(=O)C2CCN(CCC3CCN(c4cccc5c4n(C)c(=O)n5C4CCC(=O)NC4=O)CC3)CC2)ccc1Nc1ncc2cc(Cl)c(=O)n(C(C)C)c2n1` (stereo not shown) [I-11]: for the setting “14 h incubation”, the “CDK2 degradation 14 h: Average Dmax %” value is reported as “A (A (>75% o))” and the DC50 was less than 100 nM. The like results for `Cc1cc(S(=O)(=O)C(C)CCO[C@H]2CC[C@H](CN3CCC(c4ccc5c(c4)n(C4CCC(=O)NC4=O)c(=O)n5C)CC3)CC2)ccc1Nc1ncc2cc(Cl)c(=O)n(C3CCCC3)c2n1` (stereo partly shown) [I-12] were, in that order, “A (A (>75% o))” and less than 100 nM. For `Cc1cc(S(=O)(=O)C2CCC(N3CCC(CN(C)c4cccc5c4n(C)c(=O)n5C4CCC(=O)NC4=O)CC3)CC2)ccc1Nc1ncc2cc(Cl)c(=O)n(C3CCCC3)c2n1` (stereo not shown) [I-33], under “14 h incubation”, the “CDK2 degradation 14 h: Average Dmax %” value is recorded as “A (A (>75% o))” and the half-maximal degradation concentration (DC50) is less than 100 nM.

In the case of `Cc1cc(S(=O)(=O)C2CC(N3CCC4(CC3)CN(c3cccc5c3n(C)c(=O)n5C3CCC(=O)NC3=O)C4)C2)ccc1Nc1ncc2cc(Cl)c(=O)n(C3CCCC3)c2n1` (stereo not shown) [I-35], for the setting “14 h incubation”, the “CDK2 degradation 14 h: Average Dmax %” value is “B (B (>50% -75%))” and the DC50 was less than 100 nM. On the same counts, the results for `Cc1cc(S(=O)(=O)C2CC3(CCN(CC4CCN(c5ccc(NC6CCC(=O)NC6=O)cc5F)CC4)CC3)C2)ccc1Nc1ncc2cc(Cl)c(=O)n(C3CCCC3)c2n1` (stereo not shown) [I-36] are “B (B (>50% -75%))” and less than 100 nM.

Regarding `Cc1cc(S(=O)(=O)C2CC3(CCN(CC4CCN(c5ccc(NC6CCC(=O)NC6=O)cc5)CC4)CC3)C2)ccc1Nc1ncc2cc(Cl)c(=O)n(C3CCCC3)c2n1` (stereo not shown) [I-37], for the setting “14 h incubation”, the “CDK2 degradation 14 h: Average Dmax %” value is given as “B (B (>50% -75%))” and the DC50 is 100 to 500 nM.

Take `Cc1cc(S(=O)(=O)C2CC3(CCN(CC4CCN(c5ccc6c(c5F)n(C)c(=O)n6C5CCC(=O)NC5=O)CC4)CC3)C2)ccc1Nc1ncc2cc(Cl)c(=O)n(C3CCCC3)c2n1` (stereo not shown) [I-38]: where the note is “14 h incubation”, the “CDK2 degradation 14 h: Average Dmax %” value is given as “A (A (>75% o))” and the DC50 is less than 100 nM. In the case of `Cc1cc(S(=O)(=O)C2CCC(N3CC4(CCN(c5cccc6c5n(C)c(=O)n6C5CCC(=O)NC5=O)CC4)C3)CC2)ccc1Nc1ncc2c(n1)N(C1CCCC1)C(=O)C21CC1` (stereo not shown) [I-39], under “14 h incubation”, the “CDK2 degradation 14 h: Average Dmax %” value is “B (B (>50% -75%))” and the DC50 is less than 100 nM. The like results for `Cc1cc(S(=O)(=O)C2CC3(CCN(CCC4CCN(c5cccc6c5n(C)c(=O)n6C5CCC(=O)NC5=O)CC4)CC3)C2)ccc1Nc1ncc2cc(Cl)c(=O)n(C3CCCC3)c2n1` (stereo not shown) [I-40] were, in that order, “A (A (>75% o))” and less than 100 nM. The like results for `Cc1cc(S(=O)(=O)C2CC3(CCN(CC4CCN(c5cccc6c5n(C)c(=O)n6C5CCC(=O)NC5=O)CC4)CC3)C2)ccc1Nc1ncc2c(n1)N(C1CCCC1)C(=O)C21CC1` (stereo not shown) [I-42] were, in that order, “A (A (>75% o))” and less than 100 nM. On the same counts, the results for `Cc1cc(S(=O)(=O)C2CCN(CCN3CCN(c4cccc5c4n(C)c(=O)n5C4CCC(=O)NC4=O)CC3=O)CC2)ccc1Nc1ncc2cc(Cl)c(=O)n(C3CCCC3)c2n1` (stereo not shown) [I-43] are “A (A (>75% o))” and 100 to 500 nM. As to `Cc1cc(S(=O)(=O)C2CC3(CCN(CC4CCN(c5cccc6c5n(C)c(=O)n6C5CCC(=O)NC5=O)CC4)CC3)C2)ccc1Nc1ncc2cc(Cl)c(=O)n(C3CCCC34CC4)c2n1` (stereo not shown) [I-44], where the note is “14 h incubation”, the “CDK2 degradation 14 h: Average Dmax %” value is given as “A (A (>75% o))” and the 50% degradation concentration (DC50) was less than 100 nM. Consider `Cc1cc(S(=O)(=O)C2CC3(CCN(CC4(F)CCN(c5cccc6c5n(C)c(=O)n6C5CCC(=O)NC5=O)CC4)CC3)C2)ccc1Nc1ncc2cc(Cl)c(=O)n(C3CCCC3)c2n1` (stereo not shown) [I-45], for which, where the note is “14 h incubation”, the “CDK2 degradation 14 h: Average Dmax %” value is reported as “A (A (>75% o))” and the DC50 is 100 to 500 nM. Regarding `Cc1cc(S(=O)(=O)C2CCC(CN(C)C3CCN(c4cccc5c4n(C)c(=O)n5C4CCC(=O)NC4=O)CC3)CC2)ccc1Nc1ncc(C(F)(F)F)c(-c2cnn(C)c2)n1` (stereo not shown) [I-46], where the note is “14 h incubation”, the “CDK2 degradation 14 h: Average Dmax %” value is listed as “A (A (>75% o))” and the DC50 is less than 100 nM.

Take `Cc1cc(S(=O)(=O)C2CCN(CCCN3CCN(c4cccc5c4n(C)c(=O)n5C4CCC(=O)NC4=O)CC3)CC2)ccc1Nc1ncc2cc(Cl)c(=O)n(C(C)C)c2n1` (stereo not shown) [I-47]: where the note is “14 h incubation”, the “CDK2 degradation 14 h: Average Dmax %” value is listed as “A (A (>75% o))” and the DC50 is less than 100 nM. For `Cc1cc(S(=O)(=O)C2CCN(C(=O)CN3CCN(c4cccc5c4n(C)c(=O)n5C4CCC(=O)NC4=O)CC3)CC2)ccc1Nc1ncc2cc(Cl)c(=O)n(C3CCCC3)c2n1` (stereo not shown) [I-48], under “14 h incubation”, the “CDK2 degradation 14 h: Average Dmax %” value is “B (B (>50% -75%))” and the DC50 was less than 100 nM.
